Laboratory results from US4576949A, “Use of 5,6,7,8-tetrahydroquinolines and 5,6-dihydropyrindines as leukotriene and lipoxygenase inhibitors and the novel 3-substituted compounds therein” (The Upjohn Company, priority 1984, dated 1986).

System: LTC/LTD
Assay: inhibition of leukotriene C and D (LTC/LTD) synthesis in vitro
Type: cell-based
Conditions: for activity at 1 µg / LTC/LTD inhibition, expressed as % of control, at 1.0: 1.0 μg; for activity at 1 µg: read-out: LTC/LTD inhibition, expressed as % of control, at 1.0; for activity at 10 µg: read-out: LTC/LTD inhibition, expressed as % of control, at 10 μg; for activity at 0.1 µg: 0.1 μg, read-out: LTC/LTD inhibition, expressed as % of control, at 0.1
Description: Thus, the following TABLE II provides examples of the biological activity as determined by methods known in the art (see Bach, M. K., et al., 6,9-deepoxy-6,9-phenylimino-Δ-6,8-prostaglandin I1, (U-60,257). A New Inhibitor of Leukotriene C and D Synthesis: In Vitro Studies. Prostaglandins 23, 759-771, 1982.) for the present invention having formula II.
^a Values for inhibition are expressed as % of control.
LTC/LTD is leukotriene C or D.

| SMILES | activity at 1 µg | activity at 10 µg (10 μg) | LTC/LTD inhibition, expressed as % of control, at 10 μg (10 μg) | LTC/LTD inhibition, expressed as % of control, at 1.0 | activity at 0.1 µg |
| --- | --- | --- | --- | --- | --- |
| C(=C1CCCc2cccnc21)c1ccccc1 [N; XII wherein M is H; n 1; R8 H; R9 H, 5,6,7,8-Tetrahydro-8-(phenylmethylene)-quinoline] | 105% | 33% | – | – | – |
| CCOC(=O)c1cc2c(nc1C)C(=Cc1ccco1)CCC2 [N; XIV; n 1; R8 CH3; R9 CO2 Et, 8-(2-Furanylmethylene)-5,6,7,8-tetrahydro-2-methyl-3-quinolinecarboxylic acid ethyl ester] | – | 16% | 31 % of control | – | – |
| CC(=O)Oc1ccc(C=C2CCc3cccnc32)cc1 [4-[(5,6-Dihydro-7H-pyrindin-7-ylidene)methyl]phenol acetate] | 88% | 45% | – | – | – |
| CCOC(=O)c1cc2c(nc1C)C(CCCCCO)CCC2 (centres unmarked) [5,6,7,8-Tetrahydro-8-(5-hydroxypentyl)-2-methyl-3-quinolinecarboxylic acid ethyl ester] | 121% | – | – | 140 % of control | – |
| CCOC(=O)c1cc2c(nc1C)C(Cc1ccccc1)CCC2 (centres unmarked) [5,6,7,8-Tetrahydro-2-methyl-8-(phenylmethyl)-3-quinolinecarboxylic acid ethyl ester] | – | – | – | – | 110% |
| CCOC(=O)c1cc2c(nc1C)C(CC1CCCO1)CCC2 (centres unmarked) [N; XIX; n 1; R8 CH3; R9 CO2 Et] | 67% | 52% | – | – | – |
| COC(=O)C=Cc1cc2c(nc1C)C(=Cc1ccccc1)CCC2 [3-[5,6,7,8-Tetrahydro-2-methyl-8-(phenylmethylene)-3-quinolinyl]-2-propenoic acid methyl ester] | 99% | 117% | – | – | – |
| C(=C1CCc2cccnc21)c1cccs1 [N; XV; n 0; R8 H; R9 H, 5,7 -Dihydro-7-(2-thienylmethylene)-5H-1-pyrindine] | 67% | 15% | – | – | – |
| CCOC(=O)c1cc2c(nc1C)C(CC(=O)CCCO)CCC2 (centres unmarked) [N; CHCO(CH2)3 OH; n 1; R8 CH3; R9 CO2 Et, 5,6,7,8-Tetrahydro-8-(5-hydroxy-2-oxopentyl)-2-methyl-3-quinolinecarboxylicacid ethyl ester] | 52% | 41% | – | – | 19% |
| CCOC(=O)c1cc2c(nc1C)C(=Cc1ccc(OC(C)=O)cc1)CCC2 [8-[[4-(Acetyloxy)phenyl]methylene]-5,6,7,8-tetrahydro-2-methyl-3-quinolinecarboxylic acid ethyl ester] | 78% | 34% | – | – | 89% |
| CCOC(=O)c1cc2c(nc1C)C(=Cc1ccccc1)CCC2 [5,6,7,8-Tetrahydro-2-methyl-8-(phenylmethylene)-3-quinolinecarboxylic acid ethyl ester] | 101% | – | – | 96 % of control | – |
